Results taken from ChEMBL document CHEMBL3217591, “Synthesis and biological evaluation of imidazolylmethylacridones as cytochrome P-450 enzymes inhibitors” (Medchemcomm, 2012).

Key:
Aromatase [1] = target: T1, Aromatase (Homo sapiens, UniProt P11511); test: Inhibition of CYP19 isolated from microsomal fraction of human term placental tissue using [1beta-3H] androstenedione as substrate at 2 uM preincubated for 5 mins followed by enzyme addition measured after 20 mins by beta scintillation counting analysis relative to control
T1 sequence (P11511 whole entry): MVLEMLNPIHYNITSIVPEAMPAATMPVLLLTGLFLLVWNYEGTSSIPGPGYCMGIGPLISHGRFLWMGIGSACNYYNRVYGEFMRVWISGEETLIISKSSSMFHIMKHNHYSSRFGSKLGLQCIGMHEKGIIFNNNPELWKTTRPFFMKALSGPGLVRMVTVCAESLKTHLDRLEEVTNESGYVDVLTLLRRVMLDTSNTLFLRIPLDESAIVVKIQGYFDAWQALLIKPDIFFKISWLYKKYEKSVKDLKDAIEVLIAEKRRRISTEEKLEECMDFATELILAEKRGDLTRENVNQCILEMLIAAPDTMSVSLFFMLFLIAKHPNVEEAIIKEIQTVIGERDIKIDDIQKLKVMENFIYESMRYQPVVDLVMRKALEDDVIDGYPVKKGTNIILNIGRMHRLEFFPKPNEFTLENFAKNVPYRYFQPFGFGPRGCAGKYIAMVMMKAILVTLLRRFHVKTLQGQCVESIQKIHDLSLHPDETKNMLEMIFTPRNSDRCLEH

[2] = target: T2, Cytochrome P450 11B1, mitochondrial (Homo sapiens, UniProt P15538); test: Inhibition of CYP11B1 (unknown origin) expressed in Chinese hamster V79MZ cells using [1,2-3H]-11-deoxycorticosterone as substrate at 500 nM preincubated for 60 mins followed by substrate addition measured after 25 mins by HPLC analysis relative to control; type: cell-based
T2 sequence (P15538 whole entry): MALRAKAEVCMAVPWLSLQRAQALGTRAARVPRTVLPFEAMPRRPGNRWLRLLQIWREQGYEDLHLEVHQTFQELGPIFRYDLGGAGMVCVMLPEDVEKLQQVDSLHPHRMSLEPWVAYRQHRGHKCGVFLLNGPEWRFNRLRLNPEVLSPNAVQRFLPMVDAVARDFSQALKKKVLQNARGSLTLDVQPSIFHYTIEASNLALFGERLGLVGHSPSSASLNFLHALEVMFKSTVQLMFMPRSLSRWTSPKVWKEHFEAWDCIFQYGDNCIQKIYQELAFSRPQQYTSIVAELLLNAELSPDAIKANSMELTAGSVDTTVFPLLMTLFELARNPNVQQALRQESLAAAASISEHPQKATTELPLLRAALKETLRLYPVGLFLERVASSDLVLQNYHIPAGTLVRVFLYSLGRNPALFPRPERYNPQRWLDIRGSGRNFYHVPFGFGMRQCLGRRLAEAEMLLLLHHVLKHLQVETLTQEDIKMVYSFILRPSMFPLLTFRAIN

Aromatase [3] = target: T1, Aromatase; test: Inhibition of CYP19 isolated from microsomal fraction of human term placental tissue using [1beta-3H] androstenedione as substrate preincubated for 5 mins followed by enzyme addition measured after 20 mins by beta scintillation counting analysis
[4] = target: T3, Steroid 17-alpha-hydroxylase/17,20 lyase (Homo sapiens, UniProt P05093); test: Inhibition of human CYP17 expressed in Escherichia coli using progesterone as substrate at 2 uM preincubated for 5 mins followed by enzyme addition measured after 30 mins by HPLC analysis relative to control; conditions: 0.5 h
T3 sequence (P05093 whole entry): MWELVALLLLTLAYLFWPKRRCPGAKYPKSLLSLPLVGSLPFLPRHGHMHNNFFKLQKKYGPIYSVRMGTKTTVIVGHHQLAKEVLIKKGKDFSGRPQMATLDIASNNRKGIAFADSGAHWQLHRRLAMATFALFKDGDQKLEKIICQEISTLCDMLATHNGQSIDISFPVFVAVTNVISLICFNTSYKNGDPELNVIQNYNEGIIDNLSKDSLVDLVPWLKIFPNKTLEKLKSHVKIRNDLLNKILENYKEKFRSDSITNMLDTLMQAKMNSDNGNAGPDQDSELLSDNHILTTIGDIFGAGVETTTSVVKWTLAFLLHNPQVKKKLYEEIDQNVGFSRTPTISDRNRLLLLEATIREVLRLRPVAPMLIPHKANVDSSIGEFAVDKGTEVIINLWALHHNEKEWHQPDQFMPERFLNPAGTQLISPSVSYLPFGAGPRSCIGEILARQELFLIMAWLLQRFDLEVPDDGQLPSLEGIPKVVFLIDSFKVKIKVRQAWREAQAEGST

[5] = target: T2, Cytochrome P450 11B1, mitochondrial; test: Inhibition of CYP11B1 (unknown origin) expressed in Chinese hamster V79MZ cells using [1,2-3H]-11-deoxycorticosterone as substrate preincubated for 60 mins followed by substrate addition measured after 25 mins by HPLC analysis; type: cell-based
[6] = target: T4, Cytochrome P450 11B2, mitochondrial (Homo sapiens, UniProt P19099); test: Inhibition of CYP11B2 (unknown origin) expressed in Chinese hamster V79MZ cells using [1,2-3H]-11-deoxycorticosterone as substrate at 500 nM preincubated for 60 mins followed by substrate addition measured after 50 mins by HPLC analysis relative to control; type: cell-based
T4 sequence (P19099 whole entry): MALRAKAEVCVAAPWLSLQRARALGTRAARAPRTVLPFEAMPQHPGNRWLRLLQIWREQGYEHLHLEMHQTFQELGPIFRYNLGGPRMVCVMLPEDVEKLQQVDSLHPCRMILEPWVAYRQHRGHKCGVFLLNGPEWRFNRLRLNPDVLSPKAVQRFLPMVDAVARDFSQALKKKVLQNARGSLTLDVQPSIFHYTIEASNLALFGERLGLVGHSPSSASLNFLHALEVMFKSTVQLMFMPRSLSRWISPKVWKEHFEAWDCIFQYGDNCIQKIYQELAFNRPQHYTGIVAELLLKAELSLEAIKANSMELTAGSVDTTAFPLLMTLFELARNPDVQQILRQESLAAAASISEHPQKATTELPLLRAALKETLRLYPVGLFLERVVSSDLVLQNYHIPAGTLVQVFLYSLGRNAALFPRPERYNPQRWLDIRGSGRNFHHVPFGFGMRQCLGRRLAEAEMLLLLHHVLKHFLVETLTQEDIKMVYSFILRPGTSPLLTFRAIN

inhibition at 2 µM (Aromatase [1]) [%] | inhibition at 0.5 µM [2] [%] | IC50 (Aromatase [3]) [nM] | inhibition at 2 µM [4] [%] | IC50 [5] [nM] | inhibition at 0.5 µM [6] [%] | Compound
95.5 | 97.5 | 14.4 | 1.4 | 21.2 | 40.8 | O=c1c2ccccc2[nH]c2c(Cn3ccnc3)cccc12
0 | 40.7 |  | 0 |  | 3.4 | O=c1c2ccccc2[nH]c2ccc(Cn3ccnc3)cc12
99 | 16.4 |  | 6.8 |  | 25.6 | N#Cc1ccc(C(c2ccc(C#N)cc2)n2cncn2)cc1 [LETROZOLE]
0 | 98 |  |  |  | 95 | CC(C)(C(=O)c1cccnc1)c1cccnc1 [METYRAPONE]
